Results taken from patent US11684616B2, “Azalactam compounds as HPK1 inhibitors” (PFIZER INC., priority 2020, dated 2023).
Read-outs that look alike come from different tables or passages of the source.

Tests used:
[1] = molecular target: human full-length autophosphorylated recombinant HPK1 (Homo sapiens (Human), UniProt Q92918); test: HPK1 biochemical enzyme assay (chelation-enhanced fluorescence, CHEF); settings: 0.5 nM HPK1, 45 μM ATP, Morrison fit
In short: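 Autophosphorylated full-length human HPK1 from Sf21 cells, His-tag removed by TEV, residual N-terminal Gly-Ser. Activity measured with a C-Sox fluorescent peptide substrate (CHEF); initial velocities followed at λex 360/λem 500 nm, 30 °C for 15 min.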

[2] = tested on: Phospho-SLP-76 (Ser376) in Jurkat cells; test: Phospho-SLP-76 (Ser376) HTRF assay in anti-CD3 stimulated Jurkat cells; assay type: cell-based; settings: 30 min pre-treatment, anti-CD3 stimulation 15 min, read-out: pSLP76 IC50
Description: Cell Based Assays Phospho-SLP-76 (Ser376) Homogeneous Time Resolved Fluorescence (HTRF) Assay
Jurkat cells were seeded at 90,000 cells/well in 90 uL of RPMI1640 growth medium containing 10% FBS and incubated at 37° C. with 5% CO2 overnight. The following day, compounds were serially diluted from a 10 mM top dose for an 11-point 3-fold dilution curve in DMSO. Compounds were intermediately diluted 1:100 into growth media prior to diluting 1:10 on cells for final concentration 10 μM to 0.1 nM in 0.1% DMSO. After 30 min pre-treatment with compounds, the cells were stimulated using 200 μg/mL of F(ab)2 complexed anti-CD3 (clone UCTH1) for 15 min at 37° C. with 5% CO2. Stimulation was stopped with ice cold PBS and cells were harvested by centrifugation before lysis in Cisbio lysis buffer (Cisbio, Bedford, Mass.). Lysates were transferred to white, low-volume plates containing anti-phospho-SLP-76-Cryptate plus anti-phospho-SLP-76-d2 HTRF antibodies and incubated overnight at room temperature protected from light according to the manufacturer's protocol (Cisbio, Bedford, Mass.). HTRF was measured on a Perkin Elmer Envision and IC50 values were calculated by concentration-response curve fitting utilizing four-parameter nonlinear regression analyses.

Sequence of human full-length autophosphorylated recombinant HPK1 (Q92918 other isoform, or with tags, fused parts or gaps): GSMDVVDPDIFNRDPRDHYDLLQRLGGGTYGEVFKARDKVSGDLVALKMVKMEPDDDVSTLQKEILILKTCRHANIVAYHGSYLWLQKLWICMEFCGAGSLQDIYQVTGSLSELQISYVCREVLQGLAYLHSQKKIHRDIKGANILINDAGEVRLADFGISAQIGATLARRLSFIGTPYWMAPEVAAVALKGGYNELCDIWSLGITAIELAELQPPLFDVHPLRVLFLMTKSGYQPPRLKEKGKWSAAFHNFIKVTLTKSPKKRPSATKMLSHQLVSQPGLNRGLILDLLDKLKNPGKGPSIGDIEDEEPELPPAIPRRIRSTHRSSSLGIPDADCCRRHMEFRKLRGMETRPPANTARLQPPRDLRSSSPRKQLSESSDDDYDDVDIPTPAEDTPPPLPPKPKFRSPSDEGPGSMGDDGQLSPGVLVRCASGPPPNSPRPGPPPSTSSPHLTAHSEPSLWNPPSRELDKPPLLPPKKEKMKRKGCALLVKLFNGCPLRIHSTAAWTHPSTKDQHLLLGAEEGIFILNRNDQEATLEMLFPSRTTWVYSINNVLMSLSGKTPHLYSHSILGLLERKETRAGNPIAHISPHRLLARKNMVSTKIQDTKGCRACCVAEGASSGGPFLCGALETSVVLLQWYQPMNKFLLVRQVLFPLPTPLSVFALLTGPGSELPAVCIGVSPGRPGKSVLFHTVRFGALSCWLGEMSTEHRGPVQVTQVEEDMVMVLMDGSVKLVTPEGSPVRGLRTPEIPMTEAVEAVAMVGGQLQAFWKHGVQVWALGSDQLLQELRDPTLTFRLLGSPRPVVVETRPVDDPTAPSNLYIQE

Row | Molecule | Ki [1] [nM] | IC50 ([2]; Homo sapiens, Jurkat) [nM] | IC50 [2] [nM]
1 | CCCn1cnnc1-c1cccc(N2Cc3c(cc(C4(C)CC4)nc3[C@H](N)CC)C2=O)n1 (single isomer, unassigned) [Example 121, 4-[(1ξ)-1-aminopropyl]-6-(1-methylcyclo-propyl)-2-[6-(4-propyl-4H-1,2,4-triazol-3-yl)pyridin-2-yl]-2,3-dihydro-1H-pyrrolo[3,4-c]pyridin-1-one] | 4.12 | 553 | 
2 | CCn1cnnc1-c1cccc(N2Cc3c(cc(C4(C)CC4)nc3C(C)(C)N)C2=O)n1 [Example 114, 4-(2-aminopropan-2-yl)-2-[6-(4-ethyl-4H-1,2,4-triazol-3-yl)pyridin-2-yl]-6-(1-methylcyclo-propyl)-2,3-dihydro-1H-pyrrolo[3,4-c]pyridin-1-one] | 0.41 | 148 | 
3 | CC[C@@H]1CCc2nnc(-c3cccc(N4Cc5c(cc(N6CCC[C@H]6C)nc5CNC)C4=O)n3)n21 [Example 203, 2-{6-[(5R)-5-ethyl-6,7-dihydro-5H-pyrrolo[2,1-c] [1,2,4]triazol-3-yl]pyridin-2-yl}-4-[(methyl-amino)methyl]-6-[(2R)-2-methylpyrroli-din-1-yl]-2,3-dihydro-1H-pyrrolo[3,4-c] pyridin-1-one] | 1.04 | 182 | 
4 | CC[C@H]1CCc2nnc(-c3cccc(N4Cc5c(cc(N(C)C)nc5CNC)C4=O)n3)n21 [Example 206, 6-(dimethyl-amino)-2-{6-[(5S)-5-ethyl-6,7-dihydro-5H-pyrrolo[2,1-c] [1,2,4]triazol-3-yl]pyridin-2-yl}-4-[(methyl-amino)methyl]-2,3-dihydro-1H-pyrrolo[3,4-c] pyridin-1-one] | 0.12 | 78 | 
5 | CCn1c(C)nnc1-c1cccc(N2Cc3c(cc(N4CCC[C@H]4C)nc3[C@H](C)N)C2=O)n1 (single isomer, unassigned) [Example 155] | 0.24 | 113 | 
6 | CCn1c(C)nnc1-c1cccc(N2Cc3c(cc(N4CCC[C@H]4C)nc3[C@@H](C)N)C2=O)n1 (single isomer, unassigned) [Example 154] | 0.25 | 120 | 
7 | CC[C@@H]1CCc2nnc(-c3cccc(N4Cc5c(cc(N6CCC[C@H]6C)nc5[C@H](N)CC)C4=O)n3)n21 (single isomer, unassigned) [Example 13] | < 0.07 | 36 | 
8 | CCn1c(C)nnc1-c1cccc(N2Cc3c(cc(N4CCC[C@H]4C)nc3[C@@H](C)NC)C2=O)n1 (single isomer, unassigned) [Example 107] | 1.02 | 140 | 
9 | 4-[(1ξ)-1- aminoethyl]-2- {6-[(5R)-5- (fluoromethyl)- 6,7-dihydro- 5H-pyrrolo[2,1- c][1,2,4]triazol- 3-yl]pyridin-2- yl}-6-[(2R)-2- methylpyrroli- din-1-yl]-2,3- dihydro-1H- pyrrolo[3,4- c]pyridin-1-one [Example 18] | < 0.05 |  | 42
10 | CCCn1cnnc1-c1cccc(N2Cc3c(cc(C4(C)CC4)nc3[C@@H](C)N)C2=O)n1 (single isomer, unassigned) [Example 117, 4-[(1ξ)-1-aminoethyl]-6-(1-methyl-cyclopropyl)-2-[6-(4-propyl-4H-1,2,4-triazol-3-yl)pyridin-2-yl]-2,3-dihydro-1H-pyrrolo[3,4-c]pyridin-1-one] | 1.02 | 270 | 
11 | CCn1cnnc1-c1cccc(N2Cc3c(cc(C4(C)CC4)nc3[C@@H](C)NC)C2=O)n1 [Example 111, 2-[6-(4-ethyl-4H-1,2,4-triazol-3-yl)pyridin-2-yl]-4-[(1R)-1-(methylamino)ethyl]-6-(1-methylcyclo-propyl)-2,3-dihydro-1H-pyrrolo[3,4-c]pyridin-1-one] | 3.42 | 470 | 
12 | CC[C@@H](N)c1nc(N(C)C)cc2c1CN(c1cccc(-c3nnc4n3[C@@H](CF)CC4)n1)C2=O [Example 33, 4-[(1R)-1-aminopropyl]-6-(dimethyl-amino)-2-{6-[(5R)-5-(fluoromethyl)-6,7-dihydro-5H-pyrrolo [2,1-c][1,2,4]triazol-3-yl]pyridin-2-yl}-2,3-dihydro-1H-pyrrolo[3,4-c]pyridin-1-one] | 0.21 | 179 | 
13 | C[C@@H]1CCCN1c1cc2c(c([C@@H](C)N)n1)CN(c1cccc(-c3nnc4n3[C@H](C)CC4)n1)C2=O (single isomer, unassigned) [Example 25] | < 0.05 | 53 | 
14 | CCn1cnnc1-c1cccc(N2Cc3c(cc(C4(C)CC4)nc3[C@H](C)N)C2=O)n1 [Example 116, 4-[(1S)-1-aminoethyl]-2-[6-(4-ethyl-4H-1,2,4-triazol-3-yl)pyridin-2-yl]-6-(1-methylcyclo-propyl)-2,3-dihydro-1H-pyrrolo[3,4-c]pyridin-1-one] | 0.64 | 214 | 
15 | CCCn1c(C)nnc1-c1cccc(N2Cc3c(cc(N(C)C(C)C)nc3[C@H](C)N)C2=O)n1 (single isomer, unassigned) [Example 149, 4-[(1ξ)-1-aminoethyl]-6-[methyl (propan-2-yl)amino]-2-[6-(5-methyl-4-propyl-4H-1,2,4-triazol-3-yl)pyridin-2-yl]-2,3-dihydro-1H-pyrrolo[3,4-c]pyridin-1-one] | 0.6 | 171 | 
16 | COC[C@@H](N)c1nc(C2(C)CC2)cc2c1CN(c1cccc(-c3nnc4n3[C@@H](CO)CC4)n1)C2=O (single isomer, unassigned) [Example 38] | 0.18 | 197 | 
17 | CCCn1c(C)nnc1-c1cccc(N2Cc3c(cc(N(C)C(C)C)nc3C(C)(C)N)C2=O)n1 [Example 139, 4-(2-amino-propan-2-yl)-6-[methyl (propan-2-yl)amino]-2-[6-(5-methyl-4-propyl-4H-1,2,4-triazol-3-yl)pyridin-2-yl]-2,3-dihydro-1H-pyrrolo[3,4-c]pyridin-1-one] | 0.27 | 104 | 
18 | CCCn1c(C)nnc1-c1cccc(N2Cc3c(cc(N4CCC[C@H]4C)nc3[C@H](C)N)C2=O)n1 (single isomer, unassigned) [Example 136] | 0.22 | 90 | 
19 | CCN(C)c1cc2c(c([C@H](C)N)n1)CN(c1cccc(-c3nnc(C)n3CC)n1)C2=O (single isomer, unassigned) [Example 128, 4-[(1ξ)-1-aminoethyl]-6-[ethyl(methyl)amino]-2-[6-(4-ethyl-5-methyl-4H-1,2,4-triazol-3-yl)pyridin-2-yl]-2,3-dihydro-1H-pyrrolo[3,4-c]pyridin-1-one] | 1.03 | 194 | 
20 | CCCn1c(C)nnc1-c1cccc(N2Cc3c(cc(N(C)C(C)C)nc3[C@@H](C)N)C2=O)n1 (single isomer, unassigned) [Example 148, 4-[(1ξ)-1-aminoethyl]-6-[methyl (propan-2-yl)amino]-2-[6-(5-methyl-4-propyl-4H-1,2,4-triazol-3-yl)pyridin-2-yl]-2,3-dihydro-1H-pyrrolo[3,4-c]pyridin-1-one] | 0.4 | 96 | 
21 | CNCc1nc(N(C)C(C)C)cc2c1CN(c1cccc(-c3nnc4n3[C@@H](C)CC4)n1)C2=O [Example 210, 4-[(methyl-amino)methyl]-2-{6-[(5S)-5-methyl-6,7-dihydro-5H-pyrrolo[2,1-c] [1,2,4]triazol-3-yl]pyridin-2-yl}-6-[methyl (propan-2-yl)amino]-2,3-dihydro-1H-pyrrolo[3,4-c] pyridin-1-one] | < 0.05 | 47 | 
22 | CCCn1c(C)nnc1-c1cccc(N2Cc3c(cc(N4CCC[C@H]4C)nc3C(C)(C)N)C2=O)n1 [Example 133, 4-(2-aminopropan-2-yl)-2-[6-(5-methyl-4-propyl-4H-1,2,4-triazol-3-yl)pyridin-2-yl]-6-[(2R)-2-methylpyrroli-din-1-yl]-2,3-dihydro-1H-pyrrolo[3,4-c]pyridin-1-one] | 0.12 | 95 | 
23 | CCn1cnnc1-c1cccc(N2Cc3c(cc(C4(C)CC4)nc3[C@H](C)NC)C2=O)n1 [Example 112, 2-[6-(4-ethyl-4H-1,2,4-triazol-3-yl)pyridin-2-yl]-4-[(1S)-1-(methylamino)ethyl]-6-(1-methylcyclo-propyl)-2,3-dihydro-1H-pyrrolo[3,4-c]pyridin-1-one] | 0.77 | 421 | 
24 | CNCc1nc(N(C)C)cc2c1CN(c1cccc(-c3nnc4n3[C@@H](C)CC4)n1)C2=O [Example 208, 6-(dimethyl-amino)-4-[(methylamino)methyl]-2-{6-[(5S)-5-methyl-6,7-dihydro-5H-pyrrolo[2,1-c] [1,2,4]triazol-3-yl]pyridin-2-yl}-2,3-dihydro-1H-pyrrolo[3,4-c] pyridin-1-one] | 0.6 | 85 | 
25 | COC[C@@H](N)c1nc(C2(C)CC2)cc2c1CN(c1cccc(-c3nnc4n3[C@@H](CF)CC4)n1)C2=O (single isomer, unassigned) [Example 35] | 0.3 | 181 | 
26 | C[C@H](N)c1nc(N2CCC[C@H]2C)cc2c1CN(c1cccc(-c3nnc4n3[C@@H](C)CC4)n1)C2=O (single isomer, unassigned) [Example 26] | 0.72 | 133 | 
